In patent US11478519B2, “Nutritional supplement containing iron” (CURA GLOBAL HEALTH (BVI) LIMITED, priority 2012, dated 2022):

System: Aspergillus oryzae
Procedure: The dose of iron was calculated as a concentration of iron elements rather than the concentration of salt; to enable comparison with the iron content in the fungal biomass. All fungal samples were thoroughly washed with deionizer water prior to testing by the ICP-OES method.
Other inorganic minerals such as selenium and zinc have been used to produce selenium or zinc enriched yeast, but the use of filamentous fungi has not been reported. […] A similar process (FIG. 2) was used for growing Aspergillus oryzae fortified with either sodium selenite or zinc sulfate. The dose of either inorganic salt was calculated as a concentration of the elements rather than the concentration of salt to enable comparison with the mineral content in the fungal biomass.

SMILES | effect on fungal yield | toxicity to Aspergillus oryzae (Fe3+ 1-200 mg/L in corn-ethanol Syrup)
O=S(=O)([O-])[O-].[Zn+2] [Zinc, zinc sulfate] | increased fungal yield | 
O=S(=O)([O-])[O-].O=S(=O)([O-])[O-].O=S(=O)([O-])[O-].[Fe+3].[Fe+3] [ferric sulfate, Ferric sulfate (Fe2(SO4)3.2H2O)] |  | not toxic
